Type: physicochemical
Excerpt: Several cationic antimicrobial agents are available for incorporation into the antimicrobial coating. The resistances of these cationic antimicrobial agents to degradation vary due to differences in their chemical structure, molecular weight, and species of anions and anionic surfactants that tend to degrade the long lifetime of the antimicrobial coating. […] Mixtures of antimicrobial agents can be used, for example to expand the range of bacteria against which the coating is effective.

In the case of poly(hexamethylene biguanide) chloride, the resistance to degradation was “more resistant to degradation than CHG”.

From patent US20110145975A1, “P0WDER-FREE GLOVE WITH STABLE AND FAST ACTING MICROBIAL COATING” (ANSELL LIMITED, priority 2009, published 2011)
